Consider 15 compounds from patent US20070043104A1, “UII-modulating compounds and their use” (priority 2005, published 2007).

Where a name gives a salt, the structure may show the parent alone.

For orientation: Emax means the greatest response seen or fitted, relative to the assay's reference. By EC50 is commonly meant the midpoint of the concentration-response curve. One may read the pEC50 as −log10 of the EC50, conventionally taken in molar units. Higher therefore signals a small EC50.

The assay deals with T1, human urotensin II receptor (Homo sapiens, UniProt Q9UKP6).
T1 construct: expressed in transfected cells; host or cells: NIH3T3 cells
T1 sequence (Q9UKP6 1-389): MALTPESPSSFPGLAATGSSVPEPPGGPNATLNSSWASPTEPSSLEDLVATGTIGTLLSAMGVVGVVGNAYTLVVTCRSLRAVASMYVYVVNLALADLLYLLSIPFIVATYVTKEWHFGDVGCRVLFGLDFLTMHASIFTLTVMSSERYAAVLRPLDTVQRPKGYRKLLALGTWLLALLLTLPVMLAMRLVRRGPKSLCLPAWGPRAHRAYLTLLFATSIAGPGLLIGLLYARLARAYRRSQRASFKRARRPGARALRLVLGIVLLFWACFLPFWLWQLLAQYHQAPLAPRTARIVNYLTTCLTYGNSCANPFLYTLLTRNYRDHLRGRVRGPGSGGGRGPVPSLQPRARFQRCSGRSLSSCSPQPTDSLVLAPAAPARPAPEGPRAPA
In words: Receptor Selection and Amplification (R-SAT) functional assay, NIH3T3 cells transfected with human urotensin II receptor and β-galactosidase marker. The format is cell-based. The following applies: for Emax: NIH3T3, Table 4, % efficacy normalized to UII at 100%; for EC50 / pEC50: eight doses in triplicate. An outline of the steps: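 NIH3T3 cells transiently co-transfected with human urotensin II receptor and β-galactosidase were grown five days with compounds (eight doses, triplicate). Marker activity was read as ONPG absorbance at 420 nm. pEC50 was derived, with percent activation normalized to a reference ligand set at 100%.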

Where [1] appears, read: Table 4, negative of the log EC50 in molarity, average ± standard deviation of 2-5 determinations.
Where [2] appears, read: Table 3, negative of the log EC50 in molarity, average ± standard deviation (or range) of determinations.
Setting [3] is: Table 3, percent activation normalized to the reference ligand assigned 100%.

`Cc1ccc(C(CCN(C)C)NC(=O)C=Cc2ccccc2)cc1` (stereo not drawn) [B7, N-[3-Dimethylamino-1-(4-methylphenyl)propyl]cinnamic amide] displayed an Emax of 97 ± 6%. Under setting [1], this compound had an EC50 of 1550 nM.
Take `Cc1ccc(C(CCN(C)C)NC(=O)C=Cc2ccc(C(F)(F)F)cc2)cc1` (stereo not drawn) [B8, N-[3-Dimethylamino-1-(4-methylphenyl)propyl]-4-trifluoromethyl-cinnamic amide HCl]: the Emax came out at 96 ± 1%. This compound also gave an EC50 under setting [1] of 437 nM.
Taken in the same sequence, the figures for `COc1ccc(C=CC(=O)NC(CCN(C)C)c2ccc(C)cc2)cc1` (stereo not drawn) [B9, N-[3-Dimethylamino-1-(4-methylphenyl)propyl]-4-methoxy-cinnamic amide HCl] were 79 ± 14% and 2000 nM.
Taken in the same sequence, the figures for `Cc1ccc(C(CCN(C)C)NC(=O)C#Cc2ccccc2)cc1` (stereo not drawn) [B10, N-[3-Dimethylamino-1-(4-methylphenyl)propyl]-3-phenylpropiolic amide] were 131% and 3090 nM.
With `CN(C)CCC(NC(=O)Cc1ccccc1)c1ccc2ccccc2c1` (stereo not drawn) [C1, N-[3-Dimethylamino-1-(2-naphthyl)propyl]-2-phenylacetamide HCl], the Emax is 121 ± 31%. Further, under setting [1], the EC50 is 1740 nM.
As to `CN(C)CCC(NC(=O)Cc1ccc(C(F)(F)F)cc1)c1ccc2ccccc2c1` (stereo not drawn) [C2, N-[3-Dimethylamino-1-(2-naphthyl)propyl]-2-(4-trifluoromethylphenyl)acetamide HCl], the Emax turned out to be 40 ± 3%. The compound also had an EC50 under setting [1] of 575 nM.
Taken in the same sequence, the figures for `CN(C)CCC(NC(=O)CCc1ccccc1)c1ccc2ccccc2c1` (stereo not drawn) [C4, N-[3-Dimethylamino-1-(2-naphthyl)propyl]-3-phenyl-propionamide HCl] were 107 ± 22% and 603 nM.
Turning to `CC(C(=O)NC(CCN(C)C)c1ccc2ccccc2c1)c1ccc(C(F)(F)F)cc1` (stereo not drawn) [C5, N-[3-Dimethylamino-1-(2-naphthyl)propyl]-2-(4-trifluoromethylphenyl)propionamide HCl], the maximum response (Emax) is 75 ± 1%. Also, the EC50 under setting [1] is 372 nM.
Turning to `COc1ccc(CCC(=O)NC(CCN(C)C)c2ccc3ccccc3c2)cc1.Cl` (stereo not drawn) [C6], the Efficacy (Table 4, % efficacy normalized to UII at 100%) was determined as 113 ± 9%. Under setting [1], the pEC50 worked out at 5.85 ± 0.11.
With `CN(C)CCC(NC(=O)/C=C/c1ccccc1)c1ccc2ccccc2c1` (stereo not drawn) [C7, N-[3-Dimethylamino-1-(2-naphthyl)propyl]-3-cinnamic amide HCl], the Emax is 116 ± 3%. The same compound had an EC50 under setting [1] of 589 nM.
`CN(C)CCC(NC(=O)C=Cc1ccc(C(F)(F)F)cc1)c1ccc2ccccc2c1` (stereo not drawn) [C8, N-[3-Dimethylamino-1-(2-naphthyl)propyl]-4-trifluoromethyl-cinnamic amide HCl]: the Emax is 117 ± 1%. This compound also showed an EC50 under setting [1] of 135 nM.
The compound `COc1ccc(C=CC(=O)NC(CCN(C)C)c2ccc3ccccc3c2)cc1` (stereo not drawn) [C9, N-[3-Dimethylamino-1-(2-naphthyl)propyl]-4-methoxy-cinnamic amide HCl] had an Emax of 106 ± 16%. This compound also showed an EC50 under setting [1] of 380 nM.
Taken in the same sequence, the figures for `CN(C)CCC(NC(=O)C#Cc1ccccc1)c1ccc2ccccc2c1` (stereo not drawn) [C10, N-[3-Dimethylamino-1-(2-naphthyl)propyl]-3-phenylpropiolic amide HCl] were 115 ± 14% and 457 nM.
“(+)-N-[1-Chlorophenyl)-3-dimethylaminopropyl]-(R)-2-methoxy-2-phenyl-acetamide oxalate [(+) 5s]”: under setting [2], the pEC50 is reported as 5.30 ± 0.07. This compound returned an Efficacy under setting [3] of 112 ± 22%.
In the case of “N-[1-(4-Chlorophenyl)-3-dimethylaminopropyloxycarbonyl]-4-phenyl-amine [7f]”, the pEC50 under setting [2] was 6.44-6.67. In addition, the Efficacy under setting [3] is 43-75%.
